“And” between values parts separate entries of the source, which are not always exact repeats. Identical values can stand only once.
Tests used:
SW480 cells = experiment: Cytotoxicity assay, CellTiter-Glo 2.0, SW480 cells; type: cell-based; conditions: SW480, human colon cancer cell line expressing kRAS G12V; 48 hours
Procedure: FIG. 2, panels A-B, illustrate the cytotoxicity of Structure 2 and Structure 3 on SW480 cells. The cytotoxicity of compounds of interest was tested against the human colon cancer cell line SW480 as described in the experimental section. SW480 cells express a mutant G12V kRAS. Compounds were incubated with cells for 48 hours and the assay was developed using Cell Titer Glo 2.0. IC50 vales were determined using GraphPad Prism 4.
Compounds were assayed for inhibition of cell proliferation and killing cancer cells. Cytotoxicity assays were conducted according to the following general procedure. SW480, SW48, SW900, SW620 were all maintained in Leibowitz L15 media supplemented with 10% fetal bovine serum and 1% PenStrep and grown in a 37° C. incubator without supplemental CO2. Capan-1 cells were maintained in Iscove's Modified Dulbecco's Medium (ATCC 30-2005) containing 20% fetal bovine serum and 1% PenStrep and grown in a 37° C. incubator containing 5% CO2.
For dose-response assays, SW480 cells were plated into 96 well plates (1 million/plate, ˜10,000/well, 250 μL media/well). Cells were allowed to settle and adhere to plate bottom overnight Compounds were placed in 500 μL media and mixed. Then 250 μL compounds+media was placed in an intermediate plate in row A. Rows B through H were filled with 125 μL media. […] Luminescence was read with FLx800 (BioTek Instruments).

[1] = tested on: flies expressing G12V in their wing; experiment: Fly assay, wing phenotype reversal; type: in vivo, Drosophila
Excerpt: Each wing from mutant flies receiving treatment with either water or compound received a score from two independent scorers according to the scheme outlined in the schematic. The analysis of the scores given to the compound group was compared to the scores given for the control (water) group.
Embryo preparation. GAL4 virgin ♀ were collected over a period of 3-5 days, then crossed with kRAS G12V (3M) ♂ inside a plastic condo supplied with grape agar containing yeast paste. Flies were acclimated for 2 days and embryos present after a span of 4-5 hours were collected along with the agar plate and incubated for 24 hours. The next day, embryos were washed off the agar plate with Embryo Wash solution (120 mM NaCl, 0.03% Triton X) and resuspended in Embryo Inoculation solution (120 mM NaCl, 420 mM Sucrose, 0.05% Triton X-100). Embryos were counted and diluted to 15 embryos/10 μL. 150 embryos (100 μL) were dispensed into each vial.
Food-drug admix preparation. Each fly vial contains 1.5 g of fly food in 4 ml water. The quantity of drug needed is calculated for a total of 4 vials, each vial containing 10 μM of Structure 2. This is equivalent to 0.014 mg of Structure 2/vial, for a total of 0.056 mg of Structure 2.
A stock solution of 0.1 mg/mL Structure 2 in ethanol is prepared. A 500-ml round bottom flask is charged with 6 g of fly food (1.5 g×4), to which is added 20 mL of ethanol, ensuring that the food is entirely covered in solvent. To this heterogeneous solution is added an appropriate amount of Structure 2 stock solution, containing the calculated required quantity, in this case 0.56 mL stock solution.
The ethanol is evaporated under reduced pressure via a rotary evaporator equipped with a bump trap. The resulting dry food is added to three vials, each containing 1.5 g, so that the experiment is performed in triplicate. The quantity is calculated initially for 4 vials, because some food will be stuck to the walls of the round bottom flask and some is also invariably lost in the bump trap during the solvent evaporation step. Control vials lacking Structure 2 or Structure 3 are also analyzed and undergo the exact same food preparation and solvent extraction procedure.
Embryo addition to vials. After all the food-drug admix is prepared and added to the respective vials, to each vial is added 4 mL of water and the vial briefly vortexed. To this liquid mixture is added the embryo solution (100 μL), the vials capped and placed in an incubator or fly room.
Wing mounting and scoring. Flies hatch 10-12 days after the above experimental setup is performed. The resulting adult flies are submerged in a 3:1 70% ethanol:glycerol solution for 24 hours, then wings are dissected with curved Vannas spring scissors (FST #15001-08). The wings are mounted in an 80% glycerol solution on a microscope slide under coverslip seal.
Pictures of the wings were taken using an Accu-Scope microscope equipped with a digital camera and connected to a laptop containing the Accu-Scope Micrometric SE Premium software. The wings were scored according to the following scoring tree:
Wing score analysis. After each wing received a score from two independent scorers, the analysis of the scores given to the Structure 2 and 3 groups was compared to the scores given for the control group and was performed using the IBM SPSS software.
Wings that received a score of 3 or above are considered “reversed”, since their phenotype is closer to WT than to kRAS G12V bearing Drosophila. The findings are plotted in FIG. 9. […]

[2] = Pharmacokinetic study in mice; type: in vivo; conditions: ip, 3 mg/kg, CD-1 mice, 3 mg/kg
Procedure: Pharmacokinetic studies were carried out using 10 weeks old CD-1 mice. Structure 2 and Structure 3 were injected ip, 3 mg/kg and 10 mg/kg, respectively, at 8 time points (0, 0.25, 0.5, 1, 2, 4, 8 and 24 hours post-dose). Blood was collected from 3 animals/time point and concentrations of Structure 2 in plasma determined using LC/MS.

For `Cc1nc(-c2ccc(CNC(=O)c3cc(CC(C)C)nn3C)cc2)no1` [Structure 2, 3-isobutyl-1-methyl-N-(4-(5-methyl-1,2,4-oxadiazol-3-yl)benzyl)-1H-pyrazole-5-carboxamide], the IC50 (SW480 cells) was 0.232 µM, the “Wing score, Scored 1-6, Mean ± SD” value ([1]; 10 μmolar in fly food, control 1.86 ± 0.62) was 2.15 and the “wing scores compared to the control group” value ([1]; Tukey HSD and LSD p<0.001, Mann Whitney p=0.002) was “significantly different from the control group”. For the same compound, the “Reversal Phenotype (%)” value ([1]; wings with score of 3 or above, Structure 2 at 10 μmolar, control 8.27) was 24% and 24.31%, the Vd/F ([2]; CD-1, mouse, plasma, plasma, read-out: Vz/F) was 0.532 L/kg and the “mean resident times (MRT)” value [2] was “approximately one to two”. The AUCINF ([2]; plasma) was 10.92 (Microgram * Hour)/mL, the AUC_%Extrap ([2]; plasma) was 1.92% and the AUClast ([2]; plasma) was 10.71 (Microgram * Hour)/mL. For the same compound, the CI/F ([2]; plasma) was 4.58 mL/min/kg, the Concentrationmax ([2]; plasma) was 5.74 Microgram/mL and the Lambda_z ([2]; plasma) was 0.53 h⁻¹. The MRTINF ([2]; plasma) was 2.15 h, the MRTlast ([2]; plasma) was 2.00 h and the Timelast ([2]; plasma) was 8.00 h. It also gave a concentration at 8 Hour ([2]; mouse, plasma, read-out: Concentrationlast) of 110 ng/mL.
